Test results as given in PubChem BioAssay AID1963443 (Molecular Pharmacology Branch, DTP, NCI, 2024).

System: MDA-MB-231 complex spheroids, growth inhibition
Test: Anticancer human tumor MDA-MB-231 cell line growth inhibition [Asc];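 also: spheroids exposed to compounds for 7 days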
Settings: for IC50: curve of first compound; for viability, T/C: stronger effect = lower value
Summary of the method: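 Tumor cells were grown as complex spheroids with human endothelial cells (HUVEC) and human mesenchymal stem cells as stroma. Agents were tested alone and in combination, in half-log steps down from the clinical Cmax, or from 10 microM where Cmax was unknown.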

C#Cc1c(F)ccc2cc(O)cc(-c3ncc4c(N5CC6CCC(C5)N6)nc(OCC56CCCN5CC(F)C6)nc4c3F)c12 (stereo not given) + CCN1C(C(=O)NC23CCC(C(=O)O)(CC2)CC3)C(c2cccc(Cl)c2F)C2(C(=O)Nc3cc(Cl)ccc32)C12CCCCC2
IC50 (second compound 0.03 µM): > 10 µM
IC50 (second compound 0.0949 µM): 8.44 µM
IC50 (second compound 0.3 µM): > 10 µM
IC50 (second compound 0.949 µM): > 10 µM
IC50 (second compound 3 µM): 0.898 µM
viability, T/C (second compound 0.03 µM, first compound 0.0316 µM): 96.8%
viability, T/C (second compound 0.03 µM, first compound 0.1 µM): 96.5%
viability, T/C (second compound 0.03 µM, first compound 0.316 µM): 92.8%
viability, T/C (second compound 0.03 µM, first compound 1 µM): 74.9%
viability, T/C (second compound 0.03 µM, first compound 3.16 µM): 63.8%
viability, T/C (second compound 0.03 µM, first compound 10 µM): 55.1%
viability, T/C (second compound 0.0949 µM, first compound 0.0316 µM): 108%
viability, T/C (second compound 0.0949 µM, first compound 0.1 µM): 98.2%
viability, T/C (second compound 0.0949 µM, first compound 0.316 µM): 94.7%
viability, T/C (second compound 0.0949 µM, first compound 1 µM): 70.2%
viability, T/C (second compound 0.0949 µM, first compound 3.16 µM): 59.3%
viability, T/C (second compound 0.0949 µM, first compound 10 µM): 48.1%
viability, T/C (second compound 0.3 µM, first compound 0.0316 µM): 106%
viability, T/C (second compound 0.3 µM, first compound 0.1 µM): 107%
viability, T/C (second compound 0.3 µM, first compound 0.316 µM): 98.8%
viability, T/C (second compound 0.3 µM, first compound 1 µM): 72.5%
viability, T/C (second compound 0.3 µM, first compound 3.16 µM): 59.3%
viability, T/C (second compound 0.3 µM, first compound 10 µM): 48.5%
viability, T/C (second compound 0.949 µM, first compound 0.0316 µM): 108%
viability, T/C (second compound 0.949 µM, first compound 0.1 µM): 106%
viability, T/C (second compound 0.949 µM, first compound 0.316 µM): 103%
viability, T/C (second compound 0.949 µM, first compound 1 µM): 66.2%
viability, T/C (second compound 0.949 µM, first compound 3.16 µM): 61.5%
viability, T/C (second compound 0.949 µM, first compound 10 µM): 45.8%
viability, T/C (second compound 3 µM, first compound 0.0316 µM): 96.7%
viability, T/C (second compound 3 µM, first compound 0.1 µM): 90.5%
viability, T/C (second compound 3 µM, first compound 0.316 µM): 68.8%
viability, T/C (second compound 3 µM, first compound 1 µM): 47.4%
viability, T/C (second compound 3 µM, first compound 3.16 µM): 43.5%
viability, T/C (second compound 3 µM, first compound 10 µM): 36.4%
